Laboratory results published in patent US10479795B2 (Incyte Corporation, priority 2016, dated 2019).
Counter-ions that a name gives are not always drawn. Like-named read-outs stand apart in the source and are kept apart here.

How the values were obtained:
[1] = test system: Phosphorylated Ribosomal Protein S6 (RPS6); assay: THP-1 RPS6 ELISA Assay; assay type: cell-based, Human; conditions: THP-1 cells, read-out: PI3Kγ_THP1_RPS6_ELISA IC50
Experimental: To measure the Phosphorylated Ribosomal Protein S6 (RPS6) in cell lysates, THP-1 cells (Human Acute Monocytic Leukemia) are purchased from ATCC (Manassas, Va.) and maintained in RPMI with 10% FBS (Gibco/Life Technologies, Carlsbad, Calif.). For the assay, THP-1 cells are serum starved overnight in RPMI, then plated in RPMI (2×10^5 cells/well in 90 μL) into 96-well flat-bottom tissue culture treated plates (Corning, Corning, N.Y.), in the presence or absence of a concentration range of test compounds. Covered plates are incubated for 2 hours at 37° C., 5% CO2 then treated with or without 10 nM MCP-1 (MYBioSource, San Diego, Calif.) for 15 minutes at 37° C., 5% CO2. Plates are centrifuged at 1600 RPM and supernatants are removed. Cells are lysed in Lysis Buffer (Cell Signaling, Danvers, Mass.) with Protease Inhibitor (Calbiochem/EMD, Germany), PMSF (Sigma, St Louis Mo.), HALTS (Thermo Fisher, Rockford, Ill.) for 30 min on wet ice. Cell lysates are frozen at −80° C. before testing. The lysates are tested in the Human/Mouse/Rat Phospho-RPS6 ELISA (R&D Systems, Inc. Minn, Minn.). The plate is measured using a microplate reader (SpectraMax M5 —Molecular Devices, LLC Sunnyvale, Calif.) set to 450 nm with a wavelength correction of 540. IC50 determination is performed by fitting the curve of inhibitor percent inhibition versus the log of the inhibitor concentration using the GraphPad Prism 5.0 software.

[2] = biological target: PI3Kδ (p110δ/p85α) Recombinant Human Protein (Homo sapiens (Human), UniProt O00329); assay: PI3Kδ Scintillation Proximity Assay; assay type: biochemical
Method in brief: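 Recombinant human p110δ/p85α (3.4 nM) with 20 μM PIP2 and 2 μM ATP plus [γ-33P]ATP, in 20 mM MOPS pH 6.7, 10 mM MgCl2, 5 mM DTT, 0.03% CHAPS, 2% DMSO; 120 min at room temperature. Product captured on WGA SPA beads, scintillation counted; IC50 from percent-of-control curves.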

[3] = biological target: PI3Kγ (p110γ) Recombinant Human Protein (Homo sapiens (Human), UniProt P48736); assay: PI3K-γ Scintillation Proximity Assay; assay type: biochemical; conditions: read-out: PI3Kγ IC50
Method in brief: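 Recombinant human p110γ assayed at room temperature in 20 mM MOPS pH 6.7, 10 mM MgCl2, 5 mM DTT, 0.03% CHAPS, 2% DMSO, with 20 μM PIP2 and 2 μM ATP plus [γ-33P]ATP. Product captured on WGA SPA beads overnight and counted; IC50 fitted from % of solvent-control activity versus log inhibitor concentration.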

Chain of PI3Kγ (p110γ) Recombinant Human Protein (P48736 whole entry): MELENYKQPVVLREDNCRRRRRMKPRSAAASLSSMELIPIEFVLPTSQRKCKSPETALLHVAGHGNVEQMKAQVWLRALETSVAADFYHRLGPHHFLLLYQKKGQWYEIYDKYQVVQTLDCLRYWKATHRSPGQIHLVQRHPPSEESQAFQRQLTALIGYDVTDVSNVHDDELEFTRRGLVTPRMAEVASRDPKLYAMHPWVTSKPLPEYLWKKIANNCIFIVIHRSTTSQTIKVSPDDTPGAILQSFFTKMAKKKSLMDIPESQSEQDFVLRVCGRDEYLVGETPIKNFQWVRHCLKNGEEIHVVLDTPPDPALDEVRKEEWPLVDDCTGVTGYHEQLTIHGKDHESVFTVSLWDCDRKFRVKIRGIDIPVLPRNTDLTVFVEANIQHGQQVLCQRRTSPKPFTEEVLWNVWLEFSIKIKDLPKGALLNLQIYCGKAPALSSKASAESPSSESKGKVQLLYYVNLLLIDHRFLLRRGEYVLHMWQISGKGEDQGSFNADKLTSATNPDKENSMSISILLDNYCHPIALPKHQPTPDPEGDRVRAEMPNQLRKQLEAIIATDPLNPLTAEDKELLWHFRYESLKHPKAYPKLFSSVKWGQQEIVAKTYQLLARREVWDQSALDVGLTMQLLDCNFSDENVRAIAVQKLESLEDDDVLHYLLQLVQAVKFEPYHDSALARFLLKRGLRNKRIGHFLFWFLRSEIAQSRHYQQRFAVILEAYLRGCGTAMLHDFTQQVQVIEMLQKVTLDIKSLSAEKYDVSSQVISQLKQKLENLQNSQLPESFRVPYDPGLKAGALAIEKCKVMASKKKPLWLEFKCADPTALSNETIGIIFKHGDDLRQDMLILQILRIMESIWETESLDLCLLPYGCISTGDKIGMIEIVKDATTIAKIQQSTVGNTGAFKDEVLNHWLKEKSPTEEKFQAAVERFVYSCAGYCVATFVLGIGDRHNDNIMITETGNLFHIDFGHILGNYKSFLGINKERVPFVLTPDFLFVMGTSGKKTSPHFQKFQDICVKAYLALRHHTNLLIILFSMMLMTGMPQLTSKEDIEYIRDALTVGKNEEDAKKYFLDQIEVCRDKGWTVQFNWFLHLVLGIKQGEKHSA
Chain of PI3Kδ (p110δ/p85α) Recombinant Human Protein (O00329 whole entry): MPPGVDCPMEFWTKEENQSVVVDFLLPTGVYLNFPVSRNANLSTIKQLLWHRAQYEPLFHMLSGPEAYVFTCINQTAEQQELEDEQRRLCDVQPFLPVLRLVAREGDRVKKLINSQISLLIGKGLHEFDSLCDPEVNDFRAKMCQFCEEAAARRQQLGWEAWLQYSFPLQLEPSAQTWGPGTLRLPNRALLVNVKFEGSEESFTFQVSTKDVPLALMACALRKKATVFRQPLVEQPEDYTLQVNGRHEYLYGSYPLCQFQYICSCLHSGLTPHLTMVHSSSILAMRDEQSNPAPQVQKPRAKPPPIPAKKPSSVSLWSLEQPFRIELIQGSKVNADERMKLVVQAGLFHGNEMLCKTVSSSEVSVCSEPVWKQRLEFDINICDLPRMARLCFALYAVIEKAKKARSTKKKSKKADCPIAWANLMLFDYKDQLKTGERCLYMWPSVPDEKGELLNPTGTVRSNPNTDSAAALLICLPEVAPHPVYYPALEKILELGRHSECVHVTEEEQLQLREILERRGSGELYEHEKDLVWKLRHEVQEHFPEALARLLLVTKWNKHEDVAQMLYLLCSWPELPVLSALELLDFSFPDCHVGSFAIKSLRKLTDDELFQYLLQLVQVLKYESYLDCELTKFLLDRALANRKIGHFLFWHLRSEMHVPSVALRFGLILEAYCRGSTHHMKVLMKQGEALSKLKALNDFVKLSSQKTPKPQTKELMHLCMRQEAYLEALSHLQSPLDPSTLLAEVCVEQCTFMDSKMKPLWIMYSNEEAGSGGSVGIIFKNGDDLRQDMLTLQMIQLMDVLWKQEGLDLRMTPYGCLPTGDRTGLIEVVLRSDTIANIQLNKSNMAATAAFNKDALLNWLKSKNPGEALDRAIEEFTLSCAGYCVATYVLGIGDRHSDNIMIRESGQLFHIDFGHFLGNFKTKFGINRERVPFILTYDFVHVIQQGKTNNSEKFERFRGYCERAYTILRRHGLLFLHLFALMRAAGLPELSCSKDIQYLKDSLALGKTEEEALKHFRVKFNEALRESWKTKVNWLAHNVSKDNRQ
Chain of PI3Kδ (p110δ/p85α) Recombinant Human Protein (P27986 whole entry partner): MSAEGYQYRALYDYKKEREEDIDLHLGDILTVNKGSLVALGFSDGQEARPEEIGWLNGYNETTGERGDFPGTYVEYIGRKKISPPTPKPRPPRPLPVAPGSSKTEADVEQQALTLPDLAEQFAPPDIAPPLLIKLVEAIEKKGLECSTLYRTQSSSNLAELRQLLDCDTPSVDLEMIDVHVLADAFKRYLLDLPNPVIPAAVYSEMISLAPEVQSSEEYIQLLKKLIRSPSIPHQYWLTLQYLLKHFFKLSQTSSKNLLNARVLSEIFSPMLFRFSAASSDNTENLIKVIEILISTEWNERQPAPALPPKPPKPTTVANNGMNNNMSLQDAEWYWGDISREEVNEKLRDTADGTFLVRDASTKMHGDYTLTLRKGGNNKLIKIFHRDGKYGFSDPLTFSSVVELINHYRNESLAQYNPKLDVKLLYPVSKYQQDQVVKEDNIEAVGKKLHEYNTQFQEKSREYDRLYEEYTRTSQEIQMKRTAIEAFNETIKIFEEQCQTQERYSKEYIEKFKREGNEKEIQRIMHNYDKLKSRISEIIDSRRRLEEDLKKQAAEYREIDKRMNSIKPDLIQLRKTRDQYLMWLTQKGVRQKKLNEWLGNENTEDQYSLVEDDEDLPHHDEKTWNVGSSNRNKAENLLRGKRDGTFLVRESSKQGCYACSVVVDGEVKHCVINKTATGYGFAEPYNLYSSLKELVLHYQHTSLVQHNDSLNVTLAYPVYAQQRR

IC50 ([1]; Homo sapiens) [nM] | IC50 [2] [nM] | IC50 [3] [nM] | SMILES | IC50 [1] [nM]
> 1000 | 100 to 500 | < 100 | Cc1ccc(S(=O)(=O)N[C@H]2CC[C@H](O)CC2)cc1-c1cnc2c(N)cc(-c3ccnn3C)cn12 [Example 10, 3-[8-Amino-6-(1-methyl-1H-pyrazol-5-yl)imidazo[1,2-a]pyridin-3-yl]-N-(trans-4-hydroxycyclohexyl)-4-methylbenzenesulfonamide bis(trifluoroacetate)] | –
< 100 | 500 to 2000 | < 100 | Cc1ccc(S(=O)(=O)N[C@H]2CC[C@H](O)CC2)cc1-c1cnc2c(N)c(Cl)ccn12 [Example 11, 3-(8-Amino-7-chloroimidazo[1,2-a]pyridin-3-yl)-N-(trans-4-hydroxycyclohexyl)-4-methylbenzenesulfonamide trifluoroacetate] | –
100 to 500 | 100 to 500 | < 100 | Cc1ccc(S(=O)(=O)N[C@H]2CC[C@H](O)CC2)cc1-c1cnc2c(N)c(-c3cnn(C)c3)ccn12 [Example 12, 3-[8-Amino-7-(1-methyl-1H-pyrazol-4-yl)imidazo[1,2-a]pyridin-3-yl]-N-(trans-4-hydroxycyclohexyl)-4-methylbenzenesulfonamide] | –
100 to 500 | 100 to 500 | < 100 | Cc1ccc(S(=O)(=O)N[C@H]2CC[C@H](O)CC2)cc1-c1cnc2c(N)nccn12 [Example 13, 3-(8-Aminoimidazo[1,2-a]pyrazin-3-yl)-N-(trans-4-hydroxycyclohexyl)-4-methylbenzenesulfonamide] | –
> 1000 | < 100 | < 100 | CCS(=O)(=O)Nc1cc(-c2cnc3c(N)nccn23)cnc1F [Example 14, N-[5-(8-Aminoimidazo[1,2-a]pyrazin-3-yl)-2-fluoropyridin-3-yl]ethanesulfonamide bis(trifluoroacetate)] | –
> 1000 | 500 to 2000 | < 100 | Cc1ccc(S(=O)(=O)NCC2(C)COC2)cc1-c1cnc2c(N)nccn12 [Example 15, 3-(8-Aminoimidazo[1,2-a]pyrazin-3-yl)-4-methyl-N-[(3-methyloxetan-3-yl)methyl]benzenesulfonamide trifluoroacetate] | –
< 100 | < 100 | < 100 | Cc1ccc(S(=O)(=O)N[C@H]2CC[C@H](O)CC2)cc1-c1cnc2c(N)nc(Br)cn12 [Example 16, 3-(8-Amino-6-bromoimidazo[1,2-a]pyrazin-3-yl)-N-(trans-4-hydroxycyclohexyl)-4-methylbenzenesulfonamide] | –
100 to 500 | 100 to 500 | < 100 | Cc1ccccc1-c1cn2c(-c3cc(S(=O)(=O)N[C@H]4CC[C@H](O)CC4)ccc3C)cnc2c(N)n1 [Example 17, 3-[8-Amino-6-(2-methylphenyl)imidazo[1,2-a]pyrazin-3-yl]-N-(trans-4-hydroxycyclohexyl)-4-methylbenzenesulfonamide] | –
< 100 | 100 to 500 | < 100 | Cc1ccc(-c2cn3c(-c4cc(S(=O)(=O)N[C@H]5CC[C@H](O)CC5)ccc4C)cnc3c(N)n2)cc1 [Example 18, 3-[8-Amino-6-(4-methylphenyl)imidazo[1,2-a]pyrazin-3-yl]-N-(trans-4-hydroxycyclohexyl)-4-methylbenzenesulfonamide] | –
< 100 | 100 to 500 | < 100 | Cc1cccc(-c2cn3c(-c4cc(S(=O)(=O)N[C@H]5CC[C@H](O)CC5)ccc4C)cnc3c(N)n2)c1 [Example 19, 3-[8-Amino-6-(3-methylphenyl)imidazo[1,2-a]pyrazin-3-yl]-N-(trans-4-hydroxycyclohexyl)-4-methylbenzenesulfonamide] | –
< 100 | < 100 | < 100 | Cc1ccc(S(=O)(=O)N[C@H]2CC[C@H](O)CC2)cc1-c1cnc2c(N)nc(-c3ccc(F)cc3)cn12 [Example 20, 3-[8-Amino-6-(4-fluorophenyl)imidazo[1,2-a]pyrazin-3-yl]-N-(trans-4-hydroxycyclohexyl)-4-methylbenzenesulfonamide] | –
< 100 | < 100 | < 100 | Cc1ccc(S(=O)(=O)N[C@H]2CC[C@H](O)CC2)cc1-c1cnc2c(N)nc(-c3cccc(F)c3)cn12 [Example 21, 3-[8-Amino-6-(3-fluorophenyl)imidazo[1,2-a]pyrazin-3-yl]-N-(trans-4-hydroxycyclohexyl)-4-methylbenzenesulfonamide] | –
< 100 | < 100 | < 100 | Cc1ccc(S(=O)(=O)N[C@H]2CC[C@H](O)CC2)cc1-c1cnc2c(N)nc(-c3ccccc3)cn12 [Example 23, 3-[8-Amino-6-phenylimidazo[1,2-a]pyrazin-3-yl]-N-(trans-4-hydroxycyclohexyl)-4-methylbenzenesulfonamide] | –
100 to 500 | 100 to 500 | < 100 | Cc1ccc(S(=O)(=O)N[C@H]2CC[C@H](O)CC2)cc1-c1cnc2c(N)nc(-c3ccncc3)cn12 [Example 25, 3-(8-Amio-6-pyridin-4-ylimidazo[1,2-a]pyrazin-3-yl)-N-(trans-4-hydroxycyclohexyl)-4-methylbenzenesulfonamide] | –
100 to 500 | < 100 | < 100 | Cc1ccc(S(=O)(=O)N[C@H]2CC[C@H](O)CC2)cc1-c1cnc2c(N)nc(-c3cccnc3)cn12 [Example 26, 3-(8-Amino-6-pyridin-3-ylimidazo[1,2-a]pyrazin-3-yl)-N-(trans-4-hydroxycyclohexyl)-4-methylbenzenesulfonamide] | –
< 100 | 100 to 500 | < 100 | Cc1ccc(S(=O)(=O)N[C@H]2CC[C@H](O)CC2)cc1-c1cnc2c(N)nc(-c3cccs3)cn12 [Example 27, 3-[8-Amino-6-(2-thienyl)imidazo[1,2-a]pyrazin-3-yl]-N-(trans-4-hydroxycyclohexyl)-4-methylbenzenesulfonamide] | –
100 to 500 | 100 to 500 | < 100 | Cc1ccc(S(=O)(=O)N[C@H]2CC[C@H](O)CC2)cc1-c1cnc2c(N)nc(-c3ccnn3C)cn12 [Example 28, 3-[8-Amino-6-(1-methyl-1H-pyrazol-5-yl)imidazo[1,2-a]pyrazin-3-yl]-N-(trans-4-hydroxycyclohexyl)-4-methylbenzenesulfonamide] | –
> 1000 | 100 to 500 | < 100 | Cc1ccc(S(=O)(=O)N[C@H]2CC[C@H](O)CC2)cc1-c1cnc2c(N)nc(-c3cnn(C)c3)cn12 [Example 29, 3-[8-Amino-6-(1-methyl-1H-pyrazol-4-yl)imidazo[1,2-a]pyrazin-3-yl]-N-(trans-4-hydroxycyclohexyl)-4-methylbenzenesulfonamide] | –
< 100 | < 100 | < 100 | COc1cccc(-c2cn3c(-c4cc(S(=O)(=O)N[C@H]5CC[C@H](O)CC5)ccc4C)cnc3c(N)n2)c1F [Example 30, 3-[8-Amino-6-(2-fluoro-3-methoxyphenyl)imidazo[1,2-a]pyrazin-3-yl]-N-(trans-4-hydroxycyclohexyl)-4-methylbenzenesulfonamide] | –
> 1000 | < 100 | < 100 | CNC(=O)c1ccc(F)c(-c2cn3c(-c4cc(S(=O)(=O)N[C@H]5CC[C@H](O)CC5)ccc4C)cnc3c(N)n2)c1 [Example 31, 3-[8-Amino-3-(5-{[(trans-4-hydroxycyclohexyl)amino]sulfonyl}-2-methylphenyl)imidazo[1,2-a]pyrazin-6-yl]-4-fluoro-N-methylbenzamide] | –

SMILES | IC50 ([1]; Homo sapiens) [nM] | IC50 [2] [nM] | IC50 [3] [nM] | IC50 [1] [nM]
Cc1ccc(S(=O)(=O)N[C@H]2CC[C@H](O)CC2)cc1-c1cn2cc(-c3ccccc3F)nc(N)c2n1 [Example 22, 3-[8-Amino-6-(2-fluorophenyl)imidazo[1,2-a]pyrazin-2-yl]-N-(trans-4-hydroxycyclohexyl)-4-methylbenzenesulfonamide] | – | < 100 | < 100 | < 100
Cc1ccc(S(=O)(=O)N[C@H]2CC[C@H](O)CC2)cc1-c1cn2cc(-c3ccc(C#N)cc3)nc(N)c2n1 [Example 24, 3-[8-Amino-6-(4-cyanophenyl)imidazo[1,2-a]pyrazin-2-yl]-N-(trans-4-hydroxycyclohexyl)-4-methylbenzenesulfonamide] | – | < 100 | < 100 | 100 to 500
